Assay [1] deals with opioid-induced antinociception in mice. Particulars: M119 100 nmol i.c.v. with morphine i.c.v.; Bonacci et al., 2006; cited from earlier work.
The test system of assay [2] is acute morphine antinociceptive tolerance in mice. The assay can be described thus: Acute morphine antinociceptive tolerance (repeated i.c.v. dosing, tail-flick). Format: in vivo, mouse.
For another assay, the target named is T1, PLCβ2-bGβ1γ2 interaction (UniProt P54311+P63212).
T1 construct: made in house; host or cells: bGβ1γ2: Sf9 insect cells
The assay can be described thus: PLCβ2 binding to biotinylated Gβ1γ2 (avidin agarose precipitation). The conditions noted are these: M119 10 μM, M201 1 μM; result in words. Here is the method:
Purified PLCβ2 (0.25 ng) was assayed in the presence (▴) or absence (▪) of 100 nM purified Gβ1γ2. […] Assays contained 10 ng of purified p101/p110 PI3Kγ heterodimer with or without 100 nM purified Gβ1γ2. Left panel: (▴) 100 nM Gβ1γ2 or (▪) no βγ. […] M119 or M201 and 25 nM purified GRK2 were added simultaneously to 250 nM biotinylated Gβ1γ2 (bGβ1γ2) immobilized on streptavidin agarose. GRK2 was detected with antibody to GRK2. Data are representative (mean ±SEM, except D) repeated at least three times each. […] 30 nM bGβ1γ2 was incubated with either 30 nM PLCβ2 or PLCβ3 in the presence or absence of M119 or M201 for 16 h at 4° C. before precipitation with avidin agarose and detection with PLCβ2,or Gβ antibodies. […] Same as 4E with PLCβ3.

For assay [3], the system named is GRK2 translocation in differentiated HL60 cells. The assay can be described thus: fMLP-dependent GRK2 translocation to membrane in differentiated HL60 cells. Format: cell-based, human. The conditions noted are these: 10 μM compound, 250 nM fMLP; result in words. As for the experimental part:
(§1) Cells were pretreated with DMSO or 10 μM compounds for 5 min prior to stimulation with 250 nM fMLP. […] Normalized peak Ca^2+ responses were pooled from three independent experiments each (mean±SEM). Cells were pretreated with DMSO (▪) or compounds (▴) for 5 min prior to stimulation. FIG. 5C is the same as A except 10 μM M201 was tested. […] Differentiated HL60 cells were treated with 10 μM compound prior to stimulation with 250 nM fMLP. Translocation of endogenous GRK2 was determined by Western blotting with a GRK2 antibody and quantitative chemiluminescence. Data are mean±SEM from 5 experiments, * P<0.05, **P<0.01 ANOVA. […] Differentiated HL60 cells stably over-expressing GFP-PHAkt were treated with 10 μM compound prior to stimulation with 100 nM fMLP. Translocation of GFP-PHAkt to the membrane was determined by Western blotting with an anti-GFP antibody and quantitative chemiluminescence. Data are mean±SEM from 4 experiments. *** P<0.001 ANOVA. […] Differentiated HL60 cells were pretreated with 10 μM of compound prior to stimulation with 1 μM fMLP for 5 min. Levels of phosphorylated and total ERK were determined by Western blotting.

Assay [4] relates to ERK1 and ERK2 activation in differentiated HL60 cells. As to the kind of experiment: fMLP-induced ERK1 and ERK2 activation in differentiated HL60 cells. Format: cell-based, human. Particulars: 10 μM compound, 1 μM fMLP, result in words. Here is the method: as §1
Assay [5] concerns ATP-dependent Ca2+ increase in differentiated HL-60 neutrophils. As to the kind of experiment: ATP-dependent Ca2+ increase in differentiated HL-60 neutrophils. In kind it is cell-based, human. Particulars: result in words. As for the experimental part: (Collins, et al. (1978) Proc. Natl. Acad. Sci. USA 75:2458; Collins, et al. (1979) J. Exp. Med. 149:969). Neutrophils were preloaded with fura-2 (1 μM), a fluorescent Ca^2+-sensitive indicator (Suh, et al. (1996) J. Biol. Chem. 271:32753), for 45 minutes, washed with HBSS and resuspended in 2 mL of indicator-free HBSS. An 140 μL aliquote of cells was added to a total of 2 mL HBSS. Fluorescence ratios were taken by dual excitation at 340 and 380 nm and emission at 510 nm. After a stable baseline was established, either DMSO or NSC119910 was added and incubated for 5 minutes. Subsequently, either fMLP or ATP agonists were added to activate release of Ca^2+ from intracellular stores.

Assay [6] concerns human δ opioid receptor (hDOR-CHO cells). The assay can be described thus: Total inositol phosphate assay in hDOR-CHO cells. Format: cell-based. Particulars: DPDPE, Deltorphin II, M119 10 μM; naltrindole 100 μM; result in words. Here is the method:
Chinese hamster ovary (CHO) cells stably expressing either the human κ (hKOR-CHO), δ (hDOR-CHO)(L. Toll, Stanford Research Institute, Palo Alto, Calif.) or μ (hMOR-CHO)(G. Uhl, National Institute on Drug Abuse, Baltimore, Md.) opioid receptor were used in the experiments. Cells in 6-well plates were labeled by adding 4 μCi of [^3H]inositol for 24 hr in inositol-free F-10 media, without serum. After labeling, LiCl was added directly to the labeling media at a final concentration of 10 mM. Ligands or peptides were added at the same time. The final volume of each well was 1 mL. The plates were put back in to the incubator at 37° C. for 30 min after which time the medium was aspirated and the plates were washed twice with 1× PBS. Ice-cold 50 mM formic acid, 1 mL, was added to the plates which were placed in the cold room at 4° C. for 30 min. After the incubation, the contents of the plates were applied to Dowex AG1-X8 columns and allowed to flow all the way through the column. The columns were washed, twice each, with 50 and 100 mM formic acid, for a total of four washes, followed by elution of the IP-containing fraction with 3 mL of 1.2 M ammonium formate/0.1 M formic acid. The eluted fraction was mixed with Scintisafe scintillation fluid, for high salt, and counted. The data are represented as the fold increase over control in total inositol phospates. All experiments were repeated three times and performed in duplicate. Control cells for each experiment were labeled with [^3H]inositol and LiCl, in the same manner as the treatment groups.

Assay [7] relates to morphine-dependent antinociception in PLCβ3 −/− mice. As to the kind of experiment: 55° C. tail-flick antinociception in PLCβ3 −/− mice. Format: in vivo, mouse. Particulars: 100 nmol i.c.v.; result in words.

The values that follow come from patent US8975259B2, “Compositions and methods for inhibiting G protein signaling” (University of Rochester, priority 2007, dated 2015).

Each structure is given as a SMILES string.

T1 sequence (P54311 whole entry): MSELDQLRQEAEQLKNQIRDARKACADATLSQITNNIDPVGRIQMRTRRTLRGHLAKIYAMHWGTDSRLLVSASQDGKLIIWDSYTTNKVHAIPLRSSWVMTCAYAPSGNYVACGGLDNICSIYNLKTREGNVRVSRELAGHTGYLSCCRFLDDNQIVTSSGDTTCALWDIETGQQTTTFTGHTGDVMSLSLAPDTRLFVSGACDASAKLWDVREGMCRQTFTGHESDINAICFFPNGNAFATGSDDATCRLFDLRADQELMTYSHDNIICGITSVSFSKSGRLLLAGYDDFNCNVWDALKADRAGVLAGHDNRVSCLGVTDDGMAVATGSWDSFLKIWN
T1 sequence (P63212 2-68 limits assumed): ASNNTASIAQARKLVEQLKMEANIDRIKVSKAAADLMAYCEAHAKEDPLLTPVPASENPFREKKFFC

Consider `O=C(O)C1CCCCC1c1c2ccc(=O)c(O)c-2oc2c(O)c(O)ccc12` (stereo not shown) [Compound M119, cyclohexanecarboxylic acid, 2-(4,5,6-trihydroxy-3-oxo-3H-xanthen-9-yl)-(9cl)], for which the “leftward shift / potentiation of morphine dose-response” value in assay [1] is given as 10 fold. Also, the “ED50 of morphine co-administered with M119” value is given as 0.22 nmol in assay [2] (6 hr) and 0.16 nmol in assay [2] (time 0). Also, the “effect on direct binding of bGβ1γ2 to PLCβ2” value on PLCβ2-bGβ1γ2 interaction is recorded as “inhibited”. For the same compound, the “effect on fMLP-dependent GRK2 translocation to the membrane fraction” value in assay [3] is listed as “substantially inhibited”. Further, the “effect on fMLP-induced activation of ERK1 and ERK2” value was “did not block” in assay [4] and “without interfering” in assay [4] (listed as NSC119910). For the same compound, the “effect on ATP-induced [Ca^2+] increase” value in assay [5] was “not significantly suppressed”. In addition, the “effect on IP generation over control treated cells” value in assay [6] is on record as “no significant effect”. Also, in assay [7], the “effect on morphine-dependent antinociception in PLCβ3 −/− mice” value is “no effect”.
